Assay results: ChEMBL document CHEMBL1156145, “1-(2-Aminoethyl)-3-(arylsulfonyl)-1H-pyrrolopyridines are 5-HT(6) receptor ligands” (Bioorg Med Chem Lett, 2009)

Key:
[1] = target: T1, 5-hydroxytryptamine receptor 6 (Homo sapiens, UniProt P50406); assay: Agonist activity at human HT6 receptor expressed in human HeLa cells assessed as intracellular cAMP level by radioimmunoassay relative to serotonin; type: functional, cell-based
[2] = target: T1, 5-hydroxytryptamine receptor 6; assay: Agonistic activity at human HT6 receptor expressed in HeLa cells assessed as intracellular cAMP level by radioimmunoassay
[3] = target: T1, 5-hydroxytryptamine receptor 6; assay: Displacement of [3H]LSD from human HT6 receptor expressed in human HeLa cells; type: cell-based
[4] = target: T1, 5-hydroxytryptamine receptor 6; assay: Antagonistic activity at human HT6 receptor expressed in HeLa cells assessed as intracellular cAMP level by radioimmunoassay relative to serotonin; type: functional, cell-based
[5] = target: T1, 5-hydroxytryptamine receptor 6; assay: Antagonistic activity at human HT6 receptor expressed in HeLa cells assessed as intracellular cAMP level by radioimmunoassay; type: functional, cell-based
[6] = target: T1, 5-hydroxytryptamine receptor 6; assay: Displacement of [3H]LSD from human HT6 receptor expressed in HeLa cells at 1 uM relative to serotonin; type: cell-based

T1 sequence (P50406 whole entry): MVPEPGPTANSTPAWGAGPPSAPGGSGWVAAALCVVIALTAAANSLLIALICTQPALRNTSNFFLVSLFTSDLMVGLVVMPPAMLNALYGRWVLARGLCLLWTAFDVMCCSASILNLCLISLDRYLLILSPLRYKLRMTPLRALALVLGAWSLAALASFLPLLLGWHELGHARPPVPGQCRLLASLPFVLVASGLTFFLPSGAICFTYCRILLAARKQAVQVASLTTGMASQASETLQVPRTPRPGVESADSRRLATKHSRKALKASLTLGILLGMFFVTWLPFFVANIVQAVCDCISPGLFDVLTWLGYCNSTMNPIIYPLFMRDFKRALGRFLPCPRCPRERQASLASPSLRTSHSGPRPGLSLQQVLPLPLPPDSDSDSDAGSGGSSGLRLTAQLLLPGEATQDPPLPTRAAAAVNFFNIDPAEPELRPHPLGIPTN

| Emax [1] [%] | Ki [3] [nM] | SMILES | also measured |
| --- | --- | --- | --- |
| 56 | 35 | NCCn1cc(S(=O)(=O)c2cccc(Cl)c2)c2ncccc21 | EC50 [2]: 197 nM |
| – | 42 | NCCn1cc(S(=O)(=O)c2c(Cl)nc3sccn23)c2ncccc21 | – |
| 100 | – | CN(C)CCn1cc(S(=O)(=O)c2cccc(F)c2)c2cccnc21 | – |
| – | 368 | CN(C)CCn1cc(S(=O)(=O)c2ccccc2)c2ncccc21 | – |
| 94 | – | CN(C)CCn1cc(S(=O)(=O)c2ccccc2)c2cccnc21 | – |
| – | 1.7 | COc1ccc2c(n1)c(S(=O)(=O)c1cccc3ccccc13)cn2CCN(C)C | Emax [4]: 100%; IC50 [5]: 295 nM |
| – | 56 | CC(=O)c1ccc2c(n1)c(S(=O)(=O)c1ccccc1)cn2CCN(C)C | – |
| – | – | CN(C)CCn1cc(S(=O)(=O)c2ccccc2)c2cnccc21 | Activity [6]: 39% |
| – | 3.9 | CC(=O)c1ccc2c(n1)c(S(=O)(=O)c1ccc(Br)cc1)cn2CCN(C)C | Imax [4]: 100%; IC50 [5]: 385 nM |
| – | – | CN(C)CCn1cc(S(=O)(=O)c2ccccc2)c2cc(Cl)ncc21 | Activity [6]: 55% |
| – | 11.3 | COc1ccc2c(n1)c(S(=O)(=O)c1cccc(F)c1)cn2CCN(C)C | Emax [4]: 91%; IC50 [5]: 41 nM |
| – | 46 | Cc1cccc(S(=O)(=O)c2cn(CCN)c3cccnc23)c1 | – |
| 51 | 76 | NCCn1cc(S(=O)(=O)c2cccc(F)c2)c2ncccc21 | EC50 [2]: 823 nM |
